From patent publication EP0293294A2, “Imidazo[1,2-a]pyrimidines and their salts, process and intermediates for their preparation, their use as medicaments and compositions containing them” (ROUSSEL-UCLAF, priority 1987, dated 1988)

These compounds were tested against récepteurs des benzodiazépines (assay: Benzodiazepine receptor binding, [³H] flunitrazépam displacement (modified Squires and Braestrup method)). Conditions: concentration inhibiting by 50% the specific binding of 0,6 nanomoles of [³H] flunitrazépam; rat forebrain membrane preparations; read-out: Liaison aux récepteurs CI50.
Parameters: species or system rats
From the text: L'affinité des composés pour les récepteurs des benzodiazépines a été évaluée en utilisant un radioligang [³H] flunitrazépam et la méthode de Squires et Braestrup (Nature, 1977, 266, 732) modifiée.
Les valeurs indiquées dans le tableau II ci-après sont les concentrations nanomolaires du produit testé qui inhibent dans une proportion de 50% la liaison spécifique de 0,6 nanomoles de [³H] flunitrazépam dans des préparations de membranes de cerveaux antérieurs de rats [(CI₅₀)en nanomoles].

In order of rising IC50:
1. COc1nc2nc(C(=O)[C@@H]3C[C@H]3Cl)cn2c2c1CCCC2 (relative stereo) [Exemple 6, trans (6,7,8,9-tétrahydro 5-méthoxyimidazo [1,2 a]quinazolin--yl) 2-chlorocyclopropyl méthanone]  180 nM
2. CCOC(=O)[C@@H]1C[C@H]1C(=O)c1cn2c(C)c(CC)c(OC)nc2n1 (relative stereo) [Exemple 1, trans 2-(6-éthyl 7-méthoxy 5-méthylimidazo [1,2-a]pyrimidin-2-oyl) cyclopropane carboxylate d'éthyle]  560 nM
3. COc1nc2nc(C(=O)[C@@H]3C[C@H]3C#N)cn2c2c1CCCC2 (relative stereo) [Exemple 11, trans 2-(6,7,8,9-tétrahydro 5-méthoxyimidazo [1,2-a]quinazolin-2-oyl) cyclopropane carbonitrile]  1000 nM
4. CCc1c(OC)nc2nc(C(=O)[C@@H]3C[C@H]3C)cn2c1C (relative stereo) [Exemple 5, trans (6-éthyl 7-méthoxy 5-méthylimidazo [1,2-a]pyrimidin-2-yl) 2-méthyl cyclopropyl méthanone]  1780 nM
5. COc1nc2nc(C(=O)C3(C)CC3)cn2c2c1CCCC2 [Exemple 4, (6,7,8,9-tétrahydro 5-méthoxyimidazo [1,2-a]quinazolin-2-yl) 1-méthyl cyclopropyl méthanone]  6300 nM
